Experimental data as given in patent US20050203117A1, “Treating allergic and inflammatory conditions” (priority 2002, published 2005).

Test: in vivo studies of allergic bronchospasm and cough

In the case of Clc1ccc2c(c1)CCc1cccnc1C2=C1CCNCC1 [desloratadine], the “effect on allergic bronchospasm and cough” value was “inhibitory effect”.
